Assay: Toxicity of the inducer doxycycline in mice
Assay type: in vivo, BALB/c mice
Conditions: 200 mg/kg dox i.p.; also seen in control mice without vector
Protocol: In view of the fact that the luciferase activity levels obtained in the induced state were very low, the decision was made to increase the dose of inducer. To this end, two consecutive doses of 100 and 200 mg/kg of dox were administered by i.p. route, separated by a 14-day period.
The luciferase activity in the hepatic area was measured at 24 hours post-induction. […] These symptoms were also observed in the control mice, those without a vector. The system's maximum rate of induction is reached at a dose of 100 mg/kg of dox, and is approximately 10-fold.

C[C@H]1c2cccc(O)c2C(=O)C2=C(O)[C@]3(O)C(=O)C(C(N)=O)=C(O)[C@@H](N(C)C)[C@@H]3[C@@H](O)[C@@H]21 [dox, doxycycline]
dox-mediated toxicity: several mice died

Reference: patent publication US20120225933A1, “REGULATED EXPRESSION SYSTEMS” (priority 2009, published 2012)
